Assays:
[1] = molecular target: GABA receptor sites; assay: displacement of 3H-muscimol from specific GABA receptor sites in mouse brain membranes; conditions: read-out: Concentration of the test compound showing 50% inhibition of labelled ligand binding
Procedure: (§1) The novel compound prepared above was investigated for its potency in interaction with GABA receptor sites in BRAIN. As described in detail in Roberts et. al. J. Neuroscience, Vol. 1, No. 2, pp. 132-140 (1981), two experiments were performed: (1) the potency of the compound in displacing ^3 H-muscimol, a known GABA agonist, from specific GABA receptor sites in mouse brain membranes, and (2) the potency in displacing ^3 H-GABA from sodium-dependent GABA binding sites in mouse brain membranes, which reflects potency for the GABA reuptake inactivation process. […] This reflects very good potency for the compound prepared in Example 4.

[2] = molecular target: T1, sodium-dependent GABA binding sites (Mus musculus); assay: displacement of 3H-GABA from sodium-dependent GABA binding sites in mouse brain membranes (GABA reuptake inactivation process); conditions: read-out: Concentration of the test compound showing 50% inhibition of labelled ligand binding
T1 construct: from tissue; host or cells: mouse brain membranes
Procedure: as §1

Structure (SMILES): NCCC(C(=O)O)C1COC(=O)C1 (stereo not drawn) [Example 4, α-(2-aminoethyl)tetrahydro-5-oxo-3-furan acetic acid]
- IC50 [1]: 2.1 µM
- IC50 [2]: 25 µM

From patent US4880924A, “Novel compounds and use thereof in selective cyclization process” (Nelson Research & Development Co., priority 1986, dated 1989)
